Laboratory results from patent US6407104B1, “Pyrrolo[1,2-a]pyrazine spla2 inhibitor” (Shionogi & Co., Ltd., priority 1998, dated 2002).

Legend:
[1] = biological target: T1, recombinant human secretory phospholipase A2 (Homo sapiens, UniProt P14555); assay: Inhibition Test of Human Secretory Phospholipase A2 (chromogenic assay); format: biochemical; details: sPLA2 50 ng/well, 40° C., 30 minutes, OD 405 nm, 96 well microtiterplate
T1 sequence (P14555 21-144): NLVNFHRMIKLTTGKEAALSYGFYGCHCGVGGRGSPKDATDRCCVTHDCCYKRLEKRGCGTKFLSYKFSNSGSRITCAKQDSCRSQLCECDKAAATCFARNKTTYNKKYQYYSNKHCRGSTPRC
Text: Test Example: Inhibition Test of Human Secretory Phospholipase A2
In order to identify and evaluate an inhibitor of recombinant human secretory phospholipase A2, the following chromogenic assay is utilized. The assay herein has been applied for high volume screening wherein 96 well microtiterplate is used. A general explanation for such assay is described in “Analysis of Human Synovial Fluid Phospholipase A2 on Short Chain Phosphatidylcholine-Mixed Micelles: Development of a Spectrophotometric Assay Suitable for a Micortiterplate Reader” (Analytical Biochemistry, 204, pp 190-197, 1992 by Laure. J. Reynolds. Lori L. Hughes and Edward A. Dennis: the disclosure of which is incorporated herein for reference.
pH 7.5 (adjusted with NaOH)
pH 4.5 (adjusted with acetic acid)
1 mg of sPLA2 is dissolved in 1 ml of an enzyme buffer. Thereafter, the solution is maintained at 4° C.
In the assay, 5 μl of the solution is diluted with 1995 μl of the reaction buffer to be used.
198 mg of 5,5′-dithiobis-2-[…] (manufactured by Wako Pure Chemicals) is dissolved in 100 ml of H2O
H 7.5 (adjusted with NaOH)
100 mg of racemic 1,2-bis(heptanoylthio)-1,2-dideoxy-sn-glycero-3-phospholylcholine is dissolved in 1 ml of chloroform.
624.9 mg of Triton-X 100 is dissolved in the reaction buffer.
Enzyme Reaction: for 1 Plate of Microtiterplate
1) 0.106 ml of the substrate solution is put in a centrifugal tube, and nitrogen gas is jetted to remove the solvent. 0.54 ml of Triton-X 100 is added thereto, the mixture is stirred, thereafter it is sonified in a bath type sonification to dissolve. To the resulting product are added 17.8 ml of the reaction buffer and 0.46 ml of DTNB, and 0.18 ml each of the admixture is poured to wells of the 96 well microtiterplate.
2) 10 μl of a test compound (or solvent blank) are added in accordance with alignment of plates which has been previously set.
3) Incubation is effected at 40° C. for 15 minutes.
4) 20μl of an enzyme solution (sPLA2) which has been previously diluted (50 ng/well) are added to start reaction (40° C., 30 minutes).
5) Changes in absorbancy for 30 minutes are measured by a plate reader, and inhibition activity was calculated (OD: 405 nm).
6) IC50 was determined by plotting log concentration with respect to inhibition values within 10% to 90% inhibiting range.

melting point [°C] | IC50 [1] [nM] | Structure (SMILES)
211 to 213 | 8 | CCc1c(C(=O)C(N)=O)c2c(OCC(=O)O)nc(C)cn2c1Cc1csc2ccccc12 [Compound I-88]
184 to 186 | 315 | CCOC(=O)COc1nc(C)cn2c(Cc3ccc(F)cc3)c(CC)c(C(=O)C(N)=O)c12 [Compound I-89]
172 to 173 | 38 | CCOC(=O)COc1nc(C)cn2c(Cc3ccccc3-c3ccc(F)cc3)c(CC)c(C(=O)C(N)=O)c12 [Compound I-90]
160 to 161 | 48 | CCOC(=O)COc1nc(C)cn2c(Cc3ccccc3-c3cccs3)c(CC)c(C(=O)C(N)=O)c12 [Compound I-91]
185 to 186 | 76 | CCOC(=O)COc1nc(C)cn2c(Cc3ccccc3-c3ccsc3)c(CC)c(C(=O)C(N)=O)c12 [Compound I-92]
182 to 183 | 282 | CCCOC(=O)COc1nc(C)cn2c(Cc3ccc(F)cc3)c(CC)c(C(=O)C(N)=O)c12 [Compound I-93]
175 to 176 | 650 | CCCCCOC(=O)COc1nc(C)cn2c(Cc3ccc(F)cc3)c(CC)c(C(=O)C(N)=O)c12 [Compound I-94]
139 to 140 | 175 | CCc1c(C(=O)C(N)=O)c2c(OCC(=O)OCCN3CCOCC3)nc(C)cn2c1Cc1ccc(F)cc1 [Compound I-95]
